According to PMC4331368, “HZ08 Reverse P-Glycoprotein Mediated Multidrug Resistance In Vitro and In Vivo” (PLoS ONE, 2015):
“And” between values parts separate entries of the source, which are not always exact repeats. Equal entries are not always repeated.

Tests used:
KB-WT cells = assay: Cell cytotoxicity assay (CCK-8), KB-WT; assay type: cell-based, human; details: for IC50: Homo sapiens
Experimental: (§1) Briefly, cells (2,000/well) were seeded in 96-well plate and cultured at 37°C in 5% CO2 for 24h. […] After 72 h of treatment, 15μL Cell Counting Kit-8 solution was added to each well followed by another 2 h of incubation. The absorbance at 450nm and 600nm were then measured using a SpectraMax M5 microplate reader. The curves of growth inhibition rate were fitted with GraphPad Prism 5 and the IC50 values were calculated. Each assay was conducted three times in quadruplicate

KB-VCR cells = assay: Cell cytotoxicity assay (CCK-8), KB-VCR; assay type: cell-based, human; details: for IC50: Homo sapiens, 72 h; for IC50 / FR (fold-resistance): chemotherapeutic alone
Experimental: as §1

P-gp [1] = target: T1, P-gp (Homo sapiens, UniProt P08183); assay: Calcein-AM P-gp inhibition assay in MDCK-MDR1 cells; assay type: cell-based; details: 2μM GF120918 = 100%
T1 construct: expressed in transfected cells; host or cells: MDCK-MDR1 cells (canine kidney cells)
Experimental: The calcein-AM assay was optimized from previous studies.[28, 29] MDCK-MDR1 cells were cultured as described above. Cells were seeded at 8,000 cells/well (100μl of culture medium) in 96-well flat clear bottom black polystyrene plates. The medium was changed 24h after seeding and the assay was performed 48 h later. On the day of study, the medium was removed and plates were washed three times with phosphate-buffered saline (PBS). Test compounds at various concentrations were added to plates in 50μl of transport buffer containing 0.5% DMSO as solvent. Plates were incubated at 37°C for 30 min. Calcein-AM was added in 50μl of PBS to yield a final concentration of 10μM.
P-gp inhibition was calculated as described previously.[29] The curves of inhibition rates were fitted with GraphPad Prism 5 and the IC50 values were calculated. Each assay was conducted three times in quadruplicate.

[2] = target: T2, recombinant human ABCB1 membranes (Homo sapiens, UniProt P08183); assay: P-gp ATPase activity assay (Pgp-Glo, VER-stimulated); assay type: biochemical
T2 construct: purchased
Excerpt: Sodium orthovanadate (Na3VO4) was used as an ABCB1 ATPase inhibitor. […] Luminescence was initiated by ATP detection buffer.

KB-WT xenografts = assay: KB-WT tumor xenograft model; assay type: in vivo, Balb/c nude mice; details: day 21, mean±SEM
Excerpt: (§2) All the animal experiments were approved by the Institutional Animal Care and Use Committee at China Pharmaceutical University (Permit Number: CPU1201P) and carried out in strict accordance with the recommendations in the Guide for the Care and Use of Laboratory Animals of AAALAC international. Animals were acclimated for 5 days prior to study initiation. […] If any animal was moribund due to treatment associated toxicity or tumor over-growth (≥ 2000 mm^3) before scheduled sacrifice, it would be euthanized. At the endpoint, the animals were euthanized by using CO2 and all efforts were made to minimize suffering.
(§3) Body weight and the tumor growth were monitored twice a week. Tumor size was measured to the nearest 0.1 mm using vernier caliper and applying the formula: Tumor volume = length × width^2 × 0.5. Efficacy data was graphically represented as the mean tumor volume ± standard error of the mean (SEM). Tumors were collected for further analysis after last measurement.

KB-VCR xenografts = assay: KB-VCR tumor xenograft model; assay type: in vivo, Balb/c nude mice; details: for mean tumor volume / tumor weight: day 21
Excerpt: as §2, §3

P-gp [3] = target: T1, P-gp; assay: MDCK-MDR1 monolayer transport assay; assay type: cell-based; details: dog
Experimental: MDCK-MDR1 cells could differentiate into columnar epithelium with tight junctions in three days later to form cell monolayer. […] If a drug was a P-gp substrate, its permeation from apical side (A) to basal side (B) would be inhibited and reduced, while the permeation from B to A would not be affected. When a P-gp inhibitor was added, the permeation of P-gp substrate from A to B could be increased.
MDCK-MDR1 cells were cultured in Dulbecco's MEM (DMEM) Medium supplemented with 10% fetal bovine serum (FBS) and 2 mM L-glutamine. […] The plates were incubated at 37°C with 5% CO2/95% air for 4 days and subsequently used for assays. […] Plates were incubated for 90 min in 5% CO2/95% air, 37°C CO2 incubator with slowly shaking (60 rpm). Apical and basolateral compartments were sampled at the end of the transport experiment and the tested substance concentrations in both compartments were determined by LC-MS/MS.
The apparent permeability (Papp) and efflux ratio were calculated based on the equations reported previously.[33]

[4] = KB-WT, chemotherapeutic alone, 72 h
[5] = 2 mg/kg modulator + VCR 2 mg/kg
[6] = 5 mg/kg modulator + VCR 2 mg/kg

T1 sequence (P08183 whole entry): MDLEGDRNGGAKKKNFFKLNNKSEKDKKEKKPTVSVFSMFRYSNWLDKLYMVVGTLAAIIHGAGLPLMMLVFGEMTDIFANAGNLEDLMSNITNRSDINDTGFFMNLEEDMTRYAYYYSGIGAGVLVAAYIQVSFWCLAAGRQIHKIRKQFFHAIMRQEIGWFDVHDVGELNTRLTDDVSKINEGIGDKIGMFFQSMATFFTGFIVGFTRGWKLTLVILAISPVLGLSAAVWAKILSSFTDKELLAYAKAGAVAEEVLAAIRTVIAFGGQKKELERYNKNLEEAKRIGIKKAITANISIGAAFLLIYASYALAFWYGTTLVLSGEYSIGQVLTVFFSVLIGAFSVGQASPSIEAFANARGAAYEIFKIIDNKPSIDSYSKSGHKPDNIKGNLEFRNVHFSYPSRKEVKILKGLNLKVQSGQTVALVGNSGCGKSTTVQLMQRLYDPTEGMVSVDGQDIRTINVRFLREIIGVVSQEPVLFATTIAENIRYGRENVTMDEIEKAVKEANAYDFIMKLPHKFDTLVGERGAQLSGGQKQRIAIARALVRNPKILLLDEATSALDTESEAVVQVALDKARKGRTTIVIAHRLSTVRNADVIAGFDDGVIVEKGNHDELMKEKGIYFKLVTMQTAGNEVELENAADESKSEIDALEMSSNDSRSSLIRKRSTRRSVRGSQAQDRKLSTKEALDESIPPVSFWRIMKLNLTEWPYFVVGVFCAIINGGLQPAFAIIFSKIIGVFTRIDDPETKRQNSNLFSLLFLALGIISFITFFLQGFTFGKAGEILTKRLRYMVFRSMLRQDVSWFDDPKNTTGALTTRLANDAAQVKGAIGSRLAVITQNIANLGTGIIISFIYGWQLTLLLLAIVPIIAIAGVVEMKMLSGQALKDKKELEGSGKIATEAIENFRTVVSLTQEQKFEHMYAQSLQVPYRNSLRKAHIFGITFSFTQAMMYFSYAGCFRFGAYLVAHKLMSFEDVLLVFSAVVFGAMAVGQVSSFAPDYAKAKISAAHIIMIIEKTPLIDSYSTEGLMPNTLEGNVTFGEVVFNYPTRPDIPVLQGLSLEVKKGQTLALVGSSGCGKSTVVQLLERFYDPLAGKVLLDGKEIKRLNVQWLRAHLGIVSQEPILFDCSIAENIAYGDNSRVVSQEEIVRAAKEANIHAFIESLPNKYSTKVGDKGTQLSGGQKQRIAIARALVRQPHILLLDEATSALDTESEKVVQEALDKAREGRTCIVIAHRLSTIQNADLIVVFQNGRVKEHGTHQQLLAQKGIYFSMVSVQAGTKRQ
T2 sequence (P08183 whole entry): as above

Q: Which IC50 (KB-WT cells; [4]) does the source give for `COc1cccc2c1C(=O)c1c(O)c3c(c(O)c1C2=O)C[C@@](O)(C(=O)CO)C[C@@H]3O[C@H]1C[C@H](N)[C@H](O)[C@H](C)O1` [DOX, Doxorubicin] here?
A: The IC50 was 47.3 ± 19.7 nM.

Q: What about the “FR (fold-resistance)” value (KB-WT cells; KB-WT, chemotherapeutic alone) of the same compound?
A: The value was 1.00.

Q: What about the IC50 (KB-VCR cells) of the same compound?
A: The IC50 was 245 ± 39.8 nM.

Q: And the “FR (fold-resistance)” value (KB-VCR cells)?
A: The value was 1.00.

Q: For `CCCCCCCCNC(=NC#N)N1CCc2cc(OC)c(OC)cc2C1Cc1ccc(OC)c(OC)c1` (stereo not shown) [HZ08], which IC50 (P-gp [1]) is on record?
A: Its IC50 is ~2440 nM and 2440 nM.

Q: What about the ATP consumed ([2]; VER 100μM + HZ08 0.625μM) of the same compound?
A: Its ATP consumed is 74.09±4.02 pmol ATP consumed/ μg P-gp / min.

Q: What about the Fold stimulation ([2]; VER 100μM + HZ08 0.625μM) of the same compound?
A: The Fold stimulation was 4.31.

Q: And the ATP consumed ([2]; VER 100μM + HZ08 1.25μM)?
A: Its ATP consumed is 73.10±1.34 pmol ATP consumed/ μg P-gp / min.

Q: And the Fold stimulation ([2]; VER 100μM + HZ08 1.25μM)?
A: Its Fold stimulation is 4.26.

Q: And the ATP consumed ([2]; VER 100μM + HZ08 5μM)?
A: The ATP consumed was 66.82±0.87 pmol ATP consumed/ μg P-gp / min.

Q: And the Fold stimulation ([2]; VER 100μM + HZ08 5μM)?
A: The Fold stimulation was 3.89.

Q: And the ATP consumed ([2]; VER 100μM + HZ08 10μM)?
A: The ATP consumed was 63.11±1.71 pmol ATP consumed/ μg P-gp / min.

Q: And the Fold stimulation ([2]; VER 100μM + HZ08 10μM)?
A: The Fold stimulation was 3.67.

Q: What about the ATP consumed ([2]; VER 100μM + HZ08 20μM) of the same compound?
A: The ATP consumed was 55.21±0.43 pmol ATP consumed/ μg P-gp / min.

Q: What about the Fold stimulation ([2]; VER 100μM + HZ08 20μM) of the same compound?
A: The Fold stimulation was 3.21.

Q: What about the ATP consumed ([2]; VER 100μM + HZ08 40μM) of the same compound?
A: The ATP consumed was 41.25±3.00 pmol ATP consumed/ μg P-gp / min.

Q: What about the Fold stimulation ([2]; VER 100μM + HZ08 40μM) of the same compound?
A: The Fold stimulation was 2.40.

Q: What about the ATP consumed ([2]; VER 100μM + HZ08 80μM) of the same compound?
A: Its ATP consumed is 34.48±1.56 pmol ATP consumed/ μg P-gp / min.

Q: What about the Fold stimulation ([2]; VER 100μM + HZ08 80μM) of the same compound?
A: Its Fold stimulation is 2.01.

Q: What about the ATP consumed ([2]; VER 100μM + HZ08 […]) of the same compound?
A: Its ATP consumed is 69.42±1.31 pmol ATP consumed/ μg P-gp / min.

Q: What about the Fold stimulation ([2]; VER 100μM + HZ08 […]) of the same compound?
A: The Fold stimulation was 4.04.

Q: And the “cytotoxicity as single agent” value (KB-WT cells; KB-WT, CCK-8, concentrations up to 20μM)?
A: Its value is “no cytotoxicity”.

Q: And the “FR of DOX” value (KB-WT cells; KB-WT, DOX + 5 μM modulator)?
A: Its value is 0.83.

Q: And the “FR of DOX” value (KB-WT cells; KB-WT, DOX + 10 μM modulator)?
A: Its value is 1.19.

Q: And the “FR of PTX” value (KB-WT cells; KB-WT, PTX + 5 μM modulator)?
A: The value was 1.97.

Q: What about the “FR of PTX” value (KB-WT cells; KB-WT, PTX + 10 μM modulator) of the same compound?
A: The value was 2.68.

Q: What about the “FR of VCR” value (KB-WT cells; KB-WT, VCR + 5 μM modulator) of the same compound?
A: Its value is 1.65.

Q: What about the “FR of VCR” value (KB-WT cells; KB-WT, VCR + 10 μM modulator) of the same compound?
A: Its value is 3.67.

Q: And the “cytotoxicity as single agent” value (KB-VCR cells; CCK-8, concentrations up to 20μM)?
A: Its value is “no cytotoxicity”.

Q: And the “FR of DOX” value (KB-VCR cells; DOX + 5 μM modulator)?
A: Its value is 3.84.

Q: What about the “FR of DOX” value (KB-VCR cells; DOX + 10 μM modulator) of the same compound?
A: Its value is 4.78.

Q: What about the “FR of PTX” value (KB-VCR cells; PTX + 5 μM modulator) of the same compound?
A: The value was 120.06.

Q: What about the “FR of PTX” value (KB-VCR cells; PTX + 10 μM modulator) of the same compound?
A: Its value is 131.04.

Q: What about the “FR of VCR” value (KB-VCR cells; VCR + 5 μM modulator) of the same compound?
A: Its value is 173.46.

Q: What about the “FR of VCR” value (KB-VCR cells; VCR + 10 μM modulator) of the same compound?
A: Its value is 246.35.

Q: What about the mean tumor volume (KB-WT xenografts; [5]) of the same compound?
A: Its mean tumor volume is 1193.11±84.95 mm^3.

Q: What about the tumor weight (KB-WT xenografts; [5]) of the same compound?
A: The tumor weight was 1.050 ± 0.080 g.

Q: And the mean tumor volume (KB-WT xenografts; [6])?
A: Its mean tumor volume is 872.92±301.72 mm^3.

Q: And the tumor weight (KB-WT xenografts; [6])?
A: Its tumor weight is 0.845 ± 0.183 g.

Q: What about the mean tumor volume (KB-VCR xenografts; [5]) of the same compound?
A: The mean tumor volume was 1536.36±190.04 mm^3.

Q: What about the tumor weight (KB-VCR xenografts; [5]) of the same compound?
A: Its tumor weight is 1.222 ± 0.200 g.

Q: What about the “tumor inhibition (tumor volume)” value (KB-VCR xenografts; 5 mg/kg modulator + VCR 2 mg/kg, compared with 2 mg/kg) of the same compound?
A: Its value is “a higher tumor inhibition was observed”.

Q: And the tumor weight (KB-VCR xenografts; [6])?
A: Its tumor weight is 0.954 ± 0.175 g.

Q: What does the source list for `CC(=O)O[C@H]1C(=O)[C@@]2(C)[C@H]([C@H](OC(=O)c3ccccc3)[C@]3(O)C[C@H](OC(=O)[C@H](O)[C@@H](NC(=O)c4ccccc4)c4ccccc4)C(C)=C1C3(C)C)[C@]1(OC(C)=O)CO[C@@H]1C[C@@H]2O` [PTX, paclitaxel]?
A: IC50 (KB-WT cells; [4]): 3.7 ± 0.9 nM; FR (fold-resistance) (KB-WT cells; KB-WT, chemotherapeutic alone): 1.00; IC50 (KB-VCR cells): 194 ± 17.7 nM; FR (fold-resistance) (KB-VCR cells): 1.00

Q: How did the Papp A→B at 90 min, 1 μM (P-gp [3]) turn out when `CC[C@]1(O)C[C@H]2CN(CCc3c([nH]c4ccccc34)[C@@](C(=O)OC)(c3cc4c(cc3OC)N(C=O)[C@H]3[C@@](O)(C(=O)OC)[C@H](OC(C)=O)[C@]5(CC)C=CCN6CC[C@]43[C@@H]65)C2)C1` [VCR, Vincristine] was run?
A: Its Papp A→B at 90 min, 1 μM is 0.32 ± 0.1 ×10⁻⁶ cm/s.

Q: And the Papp B→A at 90 min, 1 μM (P-gp [3])?
A: The Papp B→A at 90 min, 1 μM was 1.99 ± 0.28 ×10⁻⁶ cm/s.

Q: What about the IC50 (KB-WT cells) of the same compound?
A: Its IC50 is ~1.5 nM.

Q: And the IC50 (KB-WT cells; [4])?
A: Its IC50 is 1.5 ± 0.2 nM.

Q: What about the IC50 (KB-VCR cells) of the same compound?
A: The IC50 was 619 ± 158 nM.

Q: And the mean tumor volume (KB-WT xenografts; VCR 2 mg/kg weekly i.v. alone)?
A: Its mean tumor volume is 1206.41±132.53 mm^3.

Q: And the tumor weight (KB-VCR xenografts; VCR 2 mg/kg alone)?
A: Its tumor weight is 1.623 ± 0.233 g.

Q: What about the mean tumor volume (KB-VCR xenografts; VCR 2 mg/kg weekly i.v. alone) of the same compound?
A: The mean tumor volume was 2009.99±24.57 mm^3.

Q: For `COc1ccc(CCN(C)CCCC(C#N)(c2ccc(OC)c(OC)c2)C(C)C)cc1OC` (stereo not shown) [VER, verapamil], which “FR of DOX” value (KB-WT cells; KB-WT, DOX + 10 μM modulator) is on record?
A: Its value is 1.27.

Q: What about the “FR of PTX” value (KB-WT cells; KB-WT, PTX + 10 μM modulator) of the same compound?
A: The value was 2.03.

Q: And the “FR of VCR” value (KB-WT cells; KB-WT, VCR + 10 μM modulator)?
A: Its value is 1.83.

Q: And the “FR of DOX” value (KB-VCR cells; DOX + 10 μM modulator)?
A: Its value is 3.21.

Q: And the “FR of PTX” value (KB-VCR cells; PTX + 10 μM modulator)?
A: Its value is 20.6.

Q: What about the “FR of VCR” value (KB-VCR cells; VCR + 10 μM modulator) of the same compound?
A: The value was 82.74.
